Measured values published in patent US6887899B1, “Method for controlling house dust mites with a composition comprising phenylethyl propionate” (Ecosmart Technologies, Inc., priority 1999, dated 2005).

System: American home dust mites
Assay: Efficacy of plant essential oils (actives) against dust mite, residue on glass petri dish
Text: Efficacy of different plant essential oils (actives) against dust mite
Two different concentrations of each test actives were used
50 dust mites (American home dust mites) were used per replicate. Four replicates were used per test concentration
Chemicals were applied to the surface of 100 mm glass petri dish in acetone. The control plates received same volume of solvent (acetone) only. All plates left at room temperature for air dry. After 1 hr (complete evaporation of acetone) the dust mites were transferred to each plate.
test actives were tested with and without 2 parts of piperonyl butoxide (PBO), known synergist.
Data are the mean of four replicates (200 dust mites per test concentration per chemical)

[1] = 25 ppm, 5 min, W/PBO (2 parts piperonyl butoxide)
[2] = 25 ppm, 15 min, W/PBO (2 parts piperonyl butoxide)
[3] = 25 ppm, 60 min, W/PBO (2 parts piperonyl butoxide)
[4] = 250 ppm, 5 min, W/PBO (2 parts piperonyl butoxide)

SMILES | % Mortality (25 ppm, 5 min, W/O PBO) [%] | % Mortality [1] [%] | % Mortality (25 ppm, 15 min, W/O PBO) [%] | % Mortality [2] [%] | % Mortality (25 ppm, 60 min, W/O PBO) [%] | % Mortality [3] [%] | % Mortality (250 ppm, 5 min, W/O PBO) [%] | % Mortality [4] [%] | % Mortality (250 ppm, 15 min, W/O PBO) [%] | % Mortality (250 ppm, 15 min, W/PBO (2 parts piperonyl butoxide)) [%] | % Mortality (250 ppm, 60 min, W/O PBO) [%] | % Mortality (250 ppm, 60 min, W/PBO (2 parts piperonyl butoxide)) [%]
CCC(=O)OCCc1ccccc1 [PEP, phenethyl propionate] | 54 | 63 | 60.0 | 69.0 | 62.0 | 78.0 | 80 | 97 | 92 | 99 | 99 | 100
OCc1ccccc1 [BA, Benzyl Alcohol] | 53 | 68 | 61.0 | 73.0 | 68.0 | 79.0 | 90 | 100 | 98 | – | 100 | –
Cc1ccc(C(C)C)c(O)c1 [thymol] | 67 | 80 | 72.2 | 85.0 | 80.0 | 87.5 | 100 | 100 | – | – | – | –
